# Assay results as given in patent publication US20260183393A1, “IMMUNOSUPPRESSANT-RESISTANT MODIFIED ALLOGENEIC MODIFIED IMMUNE CELLS AND METHODS FOR USE THEREOF” (Beam Therapeutics Inc., priority 2023, published 2026).
# System: JeKo-1.Luc cells
# Assay: Anti-tumor efficacy model, JeKo-1.Luc
# Format: in vivo, NSG mice
# Details: RPM 1 mg kg^−1 daily for 2 weeks
# Description: Immunocompromised NOD scid gamma (NSG) mice were implanted with 5E5 Jeko-1 tumor cells and the tumor cells were allowed to engraft for 6 days. After the six days of engraftment, 1E6 unedited or edited 19CAR-T cells were infused into tumor bearing mice (N=8 mice evaluated for each experimental condition) and administered daily for 2 weeks (dotted vertical lines) either a vehicle (5% PEG400+5% Tween80) or tacrolimus (10 mg/kg in 5% PEG400+5% Tween80). Tumor burden was assessed twice per week by measuring bioluminescence using an IVIS® spectral imaging instrument. In FIGS. 13A and 13B, each data point represents a measurement taken for an individual mouse.
# For the study described in FIGS. 18A to 18G, NSG mice were intravenously injected with 5×10^5 JeKo-1.Luc cells at day 0. On day 7, mice initiated daily intraperitoneal injections of VEH, RPM (1 mg kg^−1), or TAC (10 mg kg^−1) for 2 weeks. […] For all studies, tumor burden was measured every 3-4 days post-implant by bioluminescence imaging (IVIS Spectrum, Spectral Instruments Imaging) 30 minutes after intraperitoneally injecting mice with 150 mg kg^−1 XenoLight D-Luciferin (PerkinElmer). The acquisition time was automatically determined by the instrument for each exposure, and quantification of flux from imaging datasets was performed with the Living Image Studio software (Perkin Elmer). […]
compound,measurement,value
"CO[C@H]1C[C@@H]2CC[C@@H](C)[C@@](O)(O2)C(=O)C(=O)N2CCCC[C@H]2C(=O)O[C@H]([C@H](C)C[C@@H]2CC[C@@H](O)[C@H](OC)C2)CC(=O)[C@H](C)/C=C(\C)[C@@H](O)[C@@H](OC)C(=O)[C@H](C)C[C@H](C)/C=C/C=C/C=C/1C [rapamycin, Rapamycin]",JeKo-1 growth in control mice,mitigated JeKo-1 growth in control mice
